According to US20110097409A1, “PARTICLES COMPRISING A SALT OF 8-HYDROXY-2-[[(1R)-2-(4-METHOXYPHENYL)-1-METHYLETHYL]AMINO]ETHYL]-2(1H)-QUINOLINONE HAVING IMPROVED ADHESION PROPERTIES FOR POWDER FORMULATIONS FOR INHALATION” (Chiesi Farmaceutici S.p.A., priority 2008, published 2011):
Where a name gives a salt, the structure may show the parent alone.

Tests used:
[1] = Shape factor SF and particle shape from SEM images; assay type: physicochemical
Description: Accordingly, the powder particles of the invention are characterized by a “shape factor” SF comprised between 0.8 and 1.0, preferably from 0.85 and 0.95 as determined according to the following equation reported in Kumar S et al., Curr. Appl. Phys. Influence of metal powder shape on drag coefficient in a spray jet, 2008, in press doi:10.1016/j.cap.2008.06.005.
RN indicates the roundness of the particle and is calculated by applying the following formula: […]
wherein p and A are the mean perimeter and area values, respectively, of ten spherical particles as measured from Scanning electron microscopy (SEM) images.
The shape factor of the obtained particles, calculated according to the equation reported in the Detailed Description of the Preferred Embodiments, turned out to be comprised between 0.87 and 0.95.

[2] = Force and work of adhesion by atomic force microscopy (colloid probe); assay type: physicochemical; conditions: against smooth lactose carrier
Excerpt: The force of adhesion of the batches of powder particles obtained in Example 1 has been determined according to the procedure reported hereafter in comparison to those to those of micronised carmoterol hydrochloride and budesonide raw materials (r.m.) obtained by a conventional milling process.
As a substrate, alpha-lactose particles with a smooth surface having the characteristics reported in EP 1 196 146 and obtained as therein described are used.
An Atomic Force Microscope (AFM) as a scanning probe microscope is used to image lactose surface on an nm or even sub-nm level and to measure surface forces between the powder particles of the invention and particles of smoothed lactose.
A way to get information on the surface forces which are acting in a system and to illustrate the functioning of an AFM, is to use the “Force-Mode”. This is done by moving the tip towards and away from the surface. Recording photodetector signal as a function of z-piezo elongation yields a curve which can be interpreted as a force-vs.-distance-curve. In this work, this technique has been employed to measure the drug-carrier adhesion force modifying the original cantilever.
The interaction of the micron-sized carmoterol particles with lactose carrier surfaces is conducted using the Explorer AFM (Thermomicroscopes, UK). A multistage micromanipulation method for the attachment of micrometer-sized drug particles to tipless cantilevers was adapted from the method described by Preuss and Butt (Preuss M, Butt H-J. 1998, Langmuir, 14:3164-3174). Essentially, colloid probes are prepared by mounting an individual drug particle (approximate diameter 3-5 μm) onto a V-shaped tiples silicon nitride cantilever (spring constant k=0.58 N/m, Veeco Instruments Ltd., Cambridge, UK) using a quick-setting epoxy resin together with the custom-built microscope.
Force separation measurements are collected using layered imaging mode to produce multiple force distance curves (n=250) between each drug probe at three surface sites over a 10 μm×10 μm area. As the variability in probe contact radius geometry was unknown each study is performed at least in triplicate (n=3 to 4 probes for each measurement).
The displacement curves for each of the 250 contact points in the 10 μm×10 μm sector are plotted using a custom built MatLab program (The Mathworks Inc. USA).
The force of adhesion (the apex of the adhesion peak) and the work of adhesion (integrated area of the adhesion peak) is calculated for each graph. […] Outliers are defined as data points outside the 5-95% limits of the normal distributions obtained, and these are removed automatically by the batch conversion software. […]

COc1ccc(C[C@@H](C)NC[C@H](O)c2ccc(O)c3[nH]c(=O)ccc23)cc1 [Carmoterol HCl r.m., 8-hydroxy-5-[(1R)-1-hydroxy-2-[[(1R)-2-(4-methoxyphenyl)-1-methylethyl]amino]ethyl]-2(1H)-quinolinone]
shape factor SF ([1]; SF=1/RN, RN=p^2/4πA, from SEM images): 0.51 | particle shape by SEM inspection ([1]; scanning electron microscope, FIG. 1): different irregular flakes and/or sheets | Force of adhesion Fmax ([2]; particle population (20%)): 11.03 ± 1.27 (20%) nN | Work of adhesion Wad ([2]; particle population (20%)): 413.15 ± 131.85 µJ | Force of adhesion Fmax ([2]; particle population (80%)): 42.68 ± 4.63 (80%) nN | Work of adhesion Wad ([2]; particle population (80%)): 2115.69 ± 344.31 µJ
